# Target: T1, human PTH1 receptor (Homo sapiens, UniProt Q03431)
# T1 sequence (Q03431 27-593): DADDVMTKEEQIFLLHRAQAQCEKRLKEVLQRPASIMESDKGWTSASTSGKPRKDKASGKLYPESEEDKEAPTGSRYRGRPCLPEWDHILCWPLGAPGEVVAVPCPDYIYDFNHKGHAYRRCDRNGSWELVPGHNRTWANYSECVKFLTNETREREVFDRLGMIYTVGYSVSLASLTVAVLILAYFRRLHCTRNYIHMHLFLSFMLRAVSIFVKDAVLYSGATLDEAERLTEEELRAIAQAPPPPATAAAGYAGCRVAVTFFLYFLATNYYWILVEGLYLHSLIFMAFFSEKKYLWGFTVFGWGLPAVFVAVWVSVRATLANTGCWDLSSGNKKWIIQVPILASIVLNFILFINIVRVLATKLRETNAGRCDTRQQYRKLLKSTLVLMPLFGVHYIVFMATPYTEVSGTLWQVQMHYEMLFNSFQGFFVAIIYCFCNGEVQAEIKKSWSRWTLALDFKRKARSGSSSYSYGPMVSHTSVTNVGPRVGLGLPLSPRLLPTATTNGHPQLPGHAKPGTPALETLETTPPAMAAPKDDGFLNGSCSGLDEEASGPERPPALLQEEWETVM
# Assay: In vitro cAMP signal activity in HKRK-B7 cells (LLC-PK1 cells overexpressing the human PTH1 receptor)
# Format: cell-based
# Conditions: 0.1 µM
row,Compound,cAMP production activity (%)
1,"Cc1cc(N(C)C(N)=O)cc(C)c1CCS(=O)(=O)N1CCC2(CC1)N=C(c1cccc(C(F)(F)C(F)(F)C(F)(F)C(F)(F)F)c1)NC2=O [Compound 1341, 1-(3,5-dimethyl-4-{2-[2-(3-nonafluorobutyl-phenyl)-4-oxo-1,3,8-triaza-spiro[4.5]dec-1-ene-8-sulfonyl]-ethyl}-phenyl)-1-methyl-urea]",83

# Same assay, conditions: HKRK-B7 cells; compound at 1×10^−3 M; cAMP produced as percentage of that produced by hPTH(1-34) at 100 nM
row,Compound,cAMP production activity (%)
1,"Cc1cc(C(=O)N2CCC(C)(O)CC2)cc(C)c1CCS(=O)(=O)N1CCC2(CC1)N=C(c1ccc(F)c(OC(F)(F)F)c1)NC2=O [Compound 1335, 2-(4-fluoro-3-trifluoromethoxy-phenyl)-8-{2-[4-(4-hydroxy-4-methyl-piperidine-1-carbonyl)-2,6-dimethyl-phenyl]-ethanesulfonyl}-1,3,8-triaza-spiro[4.5]dec-1-en-4-one]",97
2,"Cc1cc(C(=O)N2CCC(C)(O)CC2)cc(C)c1CCS(=O)(=O)N1CCC2(CC1)N=C(c1ccc3c(c1)OC(F)(F)O3)NC2=O [Compound 1336, 2-(2,2-difluoro-benzo[1,3]dioxol-5-yl)-8-{2-[4-(4-hydroxy-4-methyl-piperidine-1-carbonyl)-2,6-dimethyl-phenyl]-ethanesulfonyl}-1,3,8-triaza-spiro[4.5]dec-1-en-4-one]",133
3,"Cc1cc(C(=O)N2CC(O)C2)cc(C)c1CCS(=O)(=O)N1CCC2(CC1)N=C(c1ccc(F)c(OC(F)(F)F)c1)NC2=O [Compound 1337, 2-(4-fluoro-3-trifluoromethoxy-phenyl)-8-{2-[4-(3-hydroxy-azetidine-1-carbonyl)-2,6-dimethyl-phenyl]-ethanesulfonyl}-1,3,8-triaza-spiro[4.5]dec-1-en-4-one]",44
4,"Cc1cc(N(C)C(N)=O)cc(C)c1CCS(=O)(=O)N1CCC2(CC1)N=C(c1cccc(OCCCC(F)(F)F)c1)NC2=O [Compound 1338, 1-[3,5-dimethyl-4-(2-{4-oxo-2-[3-(4,4,4-trifluoro-butoxy)-phenyl]-1,3,8-triaza-spiro[4.5]dec-1-ene-8-sulfonyl}-ethyl)-phenyl]-1-methyl-urea]",84
5,"Cc1cc(N(C)C(N)=O)cc(C)c1CCS(=O)(=O)N1CCC2(CC1)N=C(c1ccc(OCCCC(F)(F)F)cc1)NC2=O [Compound 1339, 1-[3,5-dimethyl-4-(2-{4-oxo-2-[4-(4,4,4-trifluoro-butoxy)-phenyl]-1,3,8-triaza-spiro[4.5]dec-1-ene-8-sulfonyl}-ethyl)-phenyl]-1-methyl-urea]",86
6,"Cc1cc(N(C)C(N)=O)cc(C)c1CCS(=O)(=O)N1CCC2(CC1)N=C(CCCCCc1ccccc1)NC2=O [Compound 1340, 1-(3,5-dimethyl-4-{2-[4-oxo-2-(5-phenyl-pentyl)-1,3,8-triaza-spiro[4.5]dec-1-ene-8-sulfonyl]-ethyl}-phenyl)-1-methyl-urea]",84
7,"CCCCCc1ccc(C2=NC3(CCN(S(=O)(=O)CCc4c(C)cc(N(C)C(N)=O)cc4C)CC3)C(=O)N2)cc1 [Compound 1342, 1-(3,5-dimethyl-4-{2-[4-oxo-2-(4-pentyl-phenyl)-1,3,8-triaza-spiro[4.5]dec-1-ene-8-sulfonyl]-ethyl}-phenyl)-1-methyl-urea]",114
8,"CCC[C@@H]1CCC[C@H](C2=NC3(CCN(S(=O)(=O)CCc4c(C)cc(N(C)C(N)=O)cc4C)CC3)C(=O)N2)C1 [Compound 1343, 1-(3,5-dimethyl-4-{2-[4-oxo-2-((1S,3R)-3-propyl-cyclohexyl)-1,3,8-triaza-spiro[4.5]dec-1-ene-8-sulfonyl]-ethyl}-phenyl)-1-methyl-urea]",98
9,"CCOCCCCCCC1=NC2(CCN(S(=O)(=O)CCc3c(C)cc(N(C)C(N)=O)cc3C)CC2)C(=O)N1 [Compound 1344, 1-(4-{2-[2-(6-ethoxy-hexyl)-4-oxo-1,3,8-triaza-spiro[4.5]dec-1-ene-8-sulfonyl]-ethyl}-3,5-dimethyl-phenyl)-1-methyl-urea]",94
10,"Cc1cc(N(C)C(N)=O)cc(C)c1CCS(=O)(=O)N1CCC2(CC1)N=C(c1cccc(CCCCCC(F)(F)F)c1)NC2=O [Compound 1345, 1-[3,5-dimethyl-4-(2-{4-oxo-2-[3-(6,6,6-trifluoro-hexyl)-phenyl]-1,3,8-triaza-spiro[4.5]dec-1-ene-8-sulfonyl}-ethyl)-phenyl]-1-methyl-urea]",107
11,"CCOC(=O)CCCCCCCCCCCC1=NC2(CCN(S(=O)(=O)CCc3c(C)cc(N(C)C(N)=O)cc3C)CC2)C(=O)N1 [Compound 1347, 12-(8-{2-[2,6-dimethyl-4-(1-methyl-ureido)-phenyl]-ethanesulfonyl}-4-oxo-1,3,8-triaza-spiro[4.5]dec-1-en-2-yl)-dodecanoic acid ethyl ester]",87
12,"Cc1cc(N(C)C(N)=O)cc(C)c1CCS(=O)(=O)N1CCC2(CC1)N=C(CCCCCCCCCc1ccccc1)NC2=O [Compound 1348, 1-(3,5-dimethyl-4-{2-[4-oxo-2-(9-phenyl-nonyl)-1,3,8-triaza-spiro[4.5]dec-1-ene-8-sulfonyl]-ethyl}-phenyl)-1-methyl-urea]",95
13,"Cc1cc(N(C)C(N)=O)cc(C)c1CCS(=O)(=O)N1CCC2(CC1)N=C(CCCCCCc1ccccc1)NC2=O [Compound 1349, 1-(3,5-dimethyl-4-{2-[4-oxo-2-(6-phenyl-hexyl)-1,3,8-triaza-spiro[4.5]dec-1-ene-8-sulfonyl]-ethyl}-phenyl)-1-methyl-urea]",98
14,"Cc1cc(N(C)C(N)=O)cc(C)c1CCS(=O)(=O)N1CCC2(CC1)N=C(CCCCCCCCCCCCCC(=O)O)NC2=O [Compound 1350, 14-(8-{2-[2,6-dimethyl-4-(1-methyl-ureido)-phenyl]-ethanesulfonyl}-4-oxo-1,3,8-triaza-spiro[4.5]dec-1-en-2-yl)-tetradecanoic acid]",22
15,"COCCCCCCCC1=NC2(CCN(S(=O)(=O)CCc3c(C)cc(N(C)C(N)=O)cc3C)CC2)C(=O)N1 [Compound 1351, 1-(4-{2-[2-(7-methoxy-heptyl)-4-oxo-1,3,8-triaza-spiro[4.5]dec-1-ene-8-sulfonyl]-ethyl}-3,5-dimethyl-phenyl)-1-methyl-urea]",100
16,"CCCOCCCCCC1=NC2(CCN(S(=O)(=O)CCc3c(C)cc(N(C)C(N)=O)cc3C)CC2)C(=O)N1 [Compound 1352, 1-(3,5-dimethyl-4-{2-[4-oxo-2-(5-propoxy-pentyl)-1,3,8-triaza-spiro[4.5]dec-1-ene-8-sulfonyl]-ethyl}-phenyl)-1-methyl-urea]",78
17,"CCCCCCC(CCC)CCC1=NC2(CCN(S(=O)(=O)CCc3c(C)cc(N(C)C(N)=O)cc3C)CC2)C(=O)N1 (centres unmarked) [Compound 1353, 1-(3,5-dimethyl-4-{2-[4-oxo-2-(3-propyl-nonyl)-1,3,8-triaza-spiro[4.5]dec-1-ene-8-sulfonyl]-ethyl}-phenyl)-1-methyl-urea]",111
18,"CCCCCc1ccc(C2=NC3(CCN(S(=O)(=O)CCc4c(C)cc(N(C)C(N)=O)cc4C)CC3)C(=O)N2)cc1OC [Compound 1354, 1-(4-{2-[2-(3-methoxy-4-pentyl-phenyl)-4-oxo-1,3,8-triaza-spiro[4.5]dec-1-ene-8-sulfonyl]-ethyl}-3,5-dimethyl-phenyl)-1-methyl-urea]",128
19,"CCCc1cc2ccc(C3=NC4(CCN(S(=O)(=O)CCc5c(C)cc(N(C)C(N)=O)cc5C)CC4)C(=O)N3)cc2o1 [Compound 1355, 1-(3,5-dimethyl-4-{2-[4-oxo-2-(2-propyl-benzofuran-6-yl)-1,3,8-triaza-spiro[4.5]dec-1-ene-8-sulfonyl]-ethyl}-phenyl)-1-methyl-urea]",118
20,"CCCS(=O)(=O)CCCCCC1=NC2(CCN(S(=O)(=O)CCc3c(C)cc(N(C)C(N)=O)cc3C)CC2)C(=O)N1 [Compound 1356, 1-[3,5-dimethyl-4-(2-{4-oxo-2-[5-(propane-1-sulfonyl)-pentyl]-1,3,8-triaza-spiro[4.5]dec-1-ene-8-sulfonyl}-ethyl)-phenyl]-1-methyl-urea]",14
21,"Cc1cc(N(C)C(N)=O)cc(C)c1CCS(=O)(=O)N1CCC2(CC1)N=C(CCCCCCCS(C)(=O)=O)NC2=O [Compound 1357, 1-(4-{2-[2-(7-methanesulfonyl-heptyl)-4-oxo-1,3,8-triaza-spiro[4.5]dec-1-ene-8-sulfonyl]-ethyl}-3,5-dimethyl-phenyl)-1-methyl-urea]",13
22,"Cc1cc(N(C)C(N)=O)cc(C)c1CCS(=O)(=O)N1CCC2(CC1)N=C(c1ccc(CCCC(F)(F)F)cc1)NC2=O [Compound 1358, 1-[3,5-dimethyl-4-(2-{4-oxo-2-[4-(4,4,4-trifluoro-butyl)-phenyl]-1,3,8-triaza-spiro[4.5]dec-1-ene-8-sulfonyl}-ethyl)-phenyl]-1-methyl-urea]",153
